Assays:
Cytochrome P450 3A4 [1] = target: T1, Cytochrome P450 3A4 (Homo sapiens, UniProt P08684); assay: Inhibition of CYP3A4; assay type: ADME
[2] = target: T2, Steroid 17-alpha-hydroxylase/17,20 lyase (Homo sapiens, UniProt P05093); assay: Inhibition of 17,20-lyase activity of human CYP17A1
T2 sequence (P05093 whole entry): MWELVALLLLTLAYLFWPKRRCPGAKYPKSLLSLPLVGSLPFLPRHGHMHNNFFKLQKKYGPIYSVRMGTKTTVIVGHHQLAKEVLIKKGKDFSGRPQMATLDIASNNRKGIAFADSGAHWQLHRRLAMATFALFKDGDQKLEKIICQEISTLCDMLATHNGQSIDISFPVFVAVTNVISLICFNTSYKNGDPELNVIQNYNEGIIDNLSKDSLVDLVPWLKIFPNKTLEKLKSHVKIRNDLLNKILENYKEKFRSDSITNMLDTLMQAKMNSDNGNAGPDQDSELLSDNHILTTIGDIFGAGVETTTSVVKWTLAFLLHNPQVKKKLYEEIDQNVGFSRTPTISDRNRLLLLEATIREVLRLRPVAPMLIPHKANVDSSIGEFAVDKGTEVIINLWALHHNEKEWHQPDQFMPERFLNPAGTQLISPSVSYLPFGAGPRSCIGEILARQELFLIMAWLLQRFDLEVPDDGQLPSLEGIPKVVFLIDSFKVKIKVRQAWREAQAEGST

Cynomolgus monkey [3] = assay: Reduction of serum DHEA level in cynomolgus monkey at 1 mg/kg, po after 8 hrs by radioimmunoassay (reference value: 25 +/- 6.2%); assay type: functional, Macaca fascicularis; set-up: scale not given: the % may be the effect or the level left
[4] = target: T3, Steroid 17-alpha-hydroxylase/17,20 lyase (Rattus norvegicus, UniProt P11715); assay: Inhibition of 17,20-lyase activity of Sprague-Dawley rat testicular microsomal CYP17A1 using [1,2-3H]-17a-hydroxyprogesterone as substrate after 15 mins by TLC analysis; set-up: species or system Testis
T3 sequence (P11715 whole entry): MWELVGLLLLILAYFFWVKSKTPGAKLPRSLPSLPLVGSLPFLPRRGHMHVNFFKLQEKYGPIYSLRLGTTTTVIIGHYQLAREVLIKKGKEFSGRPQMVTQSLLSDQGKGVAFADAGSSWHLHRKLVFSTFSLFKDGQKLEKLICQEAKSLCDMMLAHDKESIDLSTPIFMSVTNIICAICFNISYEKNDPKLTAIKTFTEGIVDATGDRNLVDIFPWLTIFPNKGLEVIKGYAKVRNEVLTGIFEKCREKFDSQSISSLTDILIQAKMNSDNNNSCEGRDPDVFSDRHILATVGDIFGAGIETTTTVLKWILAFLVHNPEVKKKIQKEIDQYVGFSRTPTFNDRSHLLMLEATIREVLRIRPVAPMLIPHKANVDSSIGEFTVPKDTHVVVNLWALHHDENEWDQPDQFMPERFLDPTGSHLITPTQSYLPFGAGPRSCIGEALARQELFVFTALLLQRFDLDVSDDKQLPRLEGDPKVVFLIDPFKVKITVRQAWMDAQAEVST

Cynomolgus monkey [5] = assay: Reduction of serum testosterone level in cynomolgus monkey at 1 mg/kg, po after 8 hrs by radioimmunoassay (reference value: 296 +/- 277%); assay type: functional, Macaca fascicularis; set-up: scale not given: the % may be the effect or the level left
[6] = Inhibition of Sprague-Dawley rat adrenal gland 11-hydroxylase using [1,2-3H]-hydroxy-11-deoxycorticosterone as substrate after 30 mins by TLC analysis; assay type: tissue-based
Cytochrome P450 3A4 [7] = target: T1, Cytochrome P450 3A4; assay: Inhibition of recombinant human CYP3A4 assessed as conversion of testosterone into 6-hydroxytestosterone after 30 mins by HPLC analysis; assay type: ADME
[8] = target: T2, Steroid 17-alpha-hydroxylase/17,20 lyase; assay: Inhibition of 17,20-lyase of recombinant human CYP17A1 using [1,2-3H]-17a-hydroxypregnenolone as substrate after 15 mins by TLC analysis
Cynomolgus monkey [9] = assay: Reduction of serum DHEA level in cynomolgus monkey at 1 mg/kg, po after 10 hrs by radioimmunoassay (reference value: 7.2 +/- 0.99%); assay type: functional, Macaca fascicularis; set-up: scale not given: the % may be the effect or the level left
Cynomolgus monkey [10] = assay: Reduction of serum DHEA level in cynomolgus monkey at 1 mg/kg, po after 5 hrs by radioimmunoassay (reference value: 88.6 +/- 4.4%); assay type: functional, Macaca fascicularis; set-up: scale not given: the % may be the effect or the level left
Cynomolgus monkey [11] = assay: Reduction of serum testosterone level in cynomolgus monkey at 1 mg/kg, po after 8 hrs by radioimmunoassay (reference value: 101 +/- 54%); assay type: functional, Macaca fascicularis; set-up: scale not given: the % may be the effect or the level left
Cynomolgus monkey [12] = assay: Reduction of serum testosterone level in cynomolgus monkey at 1 mg/kg, po after 10 hrs by radioimmunoassay (reference value: 269.8 +/- 94.5%); assay type: functional, Macaca fascicularis; set-up: scale not given: the % may be the effect or the level left
Cynomolgus monkey [13] = assay: Reduction of serum testosterone level in cynomolgus monkey at 1 mg/kg, po after 2 hrs by radioimmunoassay (reference value: 90 +/- 16.6%); assay type: functional, Macaca fascicularis; set-up: scale not given: the % may be the effect or the level left
Cytochrome P450 2D6 = Cytochrome P450 2D6 (Homo sapiens, UniProt P10635); assay: Inhibition of human B-lymphoblastoid cell microsomal CYP2D6 assessed as (+)-bufuralol 1'-hydroxylation preincubated for 5 mins with substrate; assay type: ADME
Cynomolgus monkey [14] = assay: Reduction of serum DHEA level in cynomolgus monkey at 1 mg/kg, po after 8 hrs by radioimmunoassay (reference value: 54 +/- 25%); assay type: functional, Macaca fascicularis; set-up: scale not given: the % may be the effect or the level left
Cynomolgus monkey [15] = assay: Reduction of serum testosterone level in cynomolgus monkey at 1 mg/kg, po after 5 hrs by radioimmunoassay (reference value: 63 +/- 19.2%); assay type: functional, Macaca fascicularis; set-up: scale not given: the % may be the effect or the level left
Cynomolgus monkey [16] = assay: Reduction of serum DHEA level in cynomolgus monkey at 1 mg/kg, po after 2 hrs by radioimmunoassay (reference value: 97.9 +/- 22.3%); assay type: functional, Macaca fascicularis; set-up: scale not given: the % may be the effect or the level left
Cytochrome P450 1A2 = target: T4, Cytochrome P450 1A2 (Homo sapiens, UniProt P05177); assay: Inhibition of human B-lymphoblastoid cell microsomal CYP1A2 assessed as 7-ethoxyresorufin O-deethylation preincubated for 5 mins with substrate; assay type: ADME
T4 sequence (P05177 whole entry): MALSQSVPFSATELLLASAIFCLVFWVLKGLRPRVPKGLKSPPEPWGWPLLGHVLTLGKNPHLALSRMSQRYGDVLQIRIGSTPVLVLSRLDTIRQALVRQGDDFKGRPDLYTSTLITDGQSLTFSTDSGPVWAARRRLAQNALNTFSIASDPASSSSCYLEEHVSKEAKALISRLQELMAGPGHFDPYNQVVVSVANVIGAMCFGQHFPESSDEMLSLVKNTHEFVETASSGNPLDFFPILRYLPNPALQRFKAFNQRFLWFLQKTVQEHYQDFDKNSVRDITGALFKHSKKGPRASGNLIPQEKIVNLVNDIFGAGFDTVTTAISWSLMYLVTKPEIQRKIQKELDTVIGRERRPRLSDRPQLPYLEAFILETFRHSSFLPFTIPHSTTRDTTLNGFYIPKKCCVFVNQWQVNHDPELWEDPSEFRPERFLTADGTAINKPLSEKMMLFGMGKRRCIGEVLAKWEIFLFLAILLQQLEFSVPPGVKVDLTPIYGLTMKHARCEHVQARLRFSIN

Cytochrome P450 2C8 = target: T5, Cytochrome P450 2C8 (Homo sapiens, UniProt P10632); assay: Inhibition of human B-lymphoblastoid cell microsomal CYP2C8 assessed as Tolbutamide hydroxylation preincubated for 5 mins with substrate; assay type: ADME
T5 sequence (P10632 whole entry): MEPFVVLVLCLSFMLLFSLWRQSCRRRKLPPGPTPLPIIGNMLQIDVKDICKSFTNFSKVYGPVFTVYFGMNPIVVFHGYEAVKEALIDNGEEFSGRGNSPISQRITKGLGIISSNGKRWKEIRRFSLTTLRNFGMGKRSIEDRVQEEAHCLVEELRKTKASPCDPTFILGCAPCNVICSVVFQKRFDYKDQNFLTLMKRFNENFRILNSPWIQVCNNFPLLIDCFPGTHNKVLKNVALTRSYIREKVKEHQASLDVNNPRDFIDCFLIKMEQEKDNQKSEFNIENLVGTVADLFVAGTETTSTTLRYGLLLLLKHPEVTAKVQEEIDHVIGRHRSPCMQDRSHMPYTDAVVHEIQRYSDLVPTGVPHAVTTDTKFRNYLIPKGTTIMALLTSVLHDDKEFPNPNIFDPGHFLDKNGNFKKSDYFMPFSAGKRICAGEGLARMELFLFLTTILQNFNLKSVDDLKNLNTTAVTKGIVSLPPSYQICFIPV

T1 sequence (P08684 whole entry): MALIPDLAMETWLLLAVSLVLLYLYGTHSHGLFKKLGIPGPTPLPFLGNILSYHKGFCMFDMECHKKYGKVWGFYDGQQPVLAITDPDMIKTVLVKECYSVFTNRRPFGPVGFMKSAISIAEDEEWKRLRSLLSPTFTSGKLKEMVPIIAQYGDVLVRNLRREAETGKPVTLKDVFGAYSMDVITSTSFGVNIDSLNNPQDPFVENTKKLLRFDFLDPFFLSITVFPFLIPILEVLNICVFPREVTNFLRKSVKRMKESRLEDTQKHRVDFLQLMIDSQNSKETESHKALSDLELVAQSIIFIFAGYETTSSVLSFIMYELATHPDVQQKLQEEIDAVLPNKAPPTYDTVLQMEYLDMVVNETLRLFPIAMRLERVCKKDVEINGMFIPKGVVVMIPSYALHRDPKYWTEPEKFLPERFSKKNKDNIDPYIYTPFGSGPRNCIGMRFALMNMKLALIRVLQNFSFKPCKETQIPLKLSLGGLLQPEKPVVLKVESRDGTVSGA
Cytochrome P450 2D6, sequence (P10635 whole entry): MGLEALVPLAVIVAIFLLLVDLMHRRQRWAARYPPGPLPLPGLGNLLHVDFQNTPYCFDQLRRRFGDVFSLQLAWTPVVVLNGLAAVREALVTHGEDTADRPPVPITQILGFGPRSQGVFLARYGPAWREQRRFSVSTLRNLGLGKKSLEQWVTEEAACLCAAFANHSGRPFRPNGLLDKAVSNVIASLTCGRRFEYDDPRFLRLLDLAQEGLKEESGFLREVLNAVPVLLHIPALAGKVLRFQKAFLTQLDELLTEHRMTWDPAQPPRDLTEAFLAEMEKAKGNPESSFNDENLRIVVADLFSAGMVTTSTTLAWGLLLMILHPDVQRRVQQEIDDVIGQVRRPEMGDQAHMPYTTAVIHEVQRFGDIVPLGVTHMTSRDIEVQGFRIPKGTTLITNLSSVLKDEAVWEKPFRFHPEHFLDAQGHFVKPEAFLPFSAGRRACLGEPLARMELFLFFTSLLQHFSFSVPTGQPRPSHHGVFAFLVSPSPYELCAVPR

| Structure (SMILES) | IC50 [4] [nM] | IC50 [6] [nM] | IC50 (Cytochrome P450 3A4 [7]) [nM] | IC50 [8] [nM] | further results |
| --- | --- | --- | --- | --- | --- |
| CNC(=O)c1ccc2cc([C@](O)(c3c[nH]cn3)C(C)C)ccc2c1 |  |  |  |  | IC50 (Cytochrome P450 3A4 [1]): 7800 nM; IC50 [2]: 5.5 nM |
| CNC(=O)c1ccc2cc(C(O)(c3c[nH]cn3)C(C)C)ccc2c1 (racemic) |  | > 1000 |  |  |  |
| CNC(=O)c1ccc2cc(C3CCn4cncc43)ccc2c1 (racemic) | 15 | 290 | < 1000 | 13 |  |
| CNC(=O)c1ccc2cc(C(C)(O)c3cncn3C)ccc2c1 (racemic) | > 1000 | > 1000 | 6900 | 410 |  |
| NC(=O)c1ccc2cc(C3(O)CCn4cncc43)ccc2c1 (racemic) | 24 | 100 | > 10000 | 29 |  |
| CCNC(=O)c1ccc2cc(C3(O)CCn4cncc43)ccc2c1 (racemic) | 110 | > 1000 | > 10000 | 190 |  |
| O=C(NC1CC1)c1ccc2cc(C3(O)CCn4cncc43)ccc2c1 (racemic) | 100 | > 1000 | > 10000 | 290 |  |
| CC(C)NC(=O)c1ccc2cc(C3(O)CCn4cncc43)ccc2c1 (racemic) | 160 | > 1000 | > 10000 | 400 |  |
| CNC(=O)c1ccc2cc([C@@]3(O)CCn4cncc43)ccc2c1 [ORTERONEL] | 48 | > 1000 |  |  | Activity (Cynomolgus monkey [9]): 7.6%; Activity (Cynomolgus monkey [10]): 32.8%; Activity (Cynomolgus monkey [11]): 30%; Activity (Cynomolgus monkey [12]): 55.6%; Activity (Cynomolgus monkey [13]): 75.9%; IC50 (Cytochrome P450 2D6): > 30000 nM; Activity (Cynomolgus monkey [14]): 12%; Activity (Cynomolgus monkey [15]): 14.2%; Activity (Cynomolgus monkey [16]): 61.1%; IC50 (Cytochrome P450 1A2): 28000 nM; IC50 (Cytochrome P450 2C8): > 30000 nM |

Further lines, with some results ahead:

| IC50 [4] [nM] | IC50 [6] [nM] | IC50 (Cytochrome P450 3A4 [7]) [nM] | IC50 [8] [nM] | Structure (SMILES) | further results |
| --- | --- | --- | --- | --- | --- |
| 180 | > 1000 |  |  | CNC(=O)c1ccc2cc([C@]3(O)CCn4cncc43)ccc2c1 | Activity (Cynomolgus monkey [3]): 91%; Activity (Cynomolgus monkey [5]): 258% |
|  | > 1000 |  |  | CNC(=O)c1ccc2cc(C3(O)CCn4cncc43)ccc2c1 (racemic) |  |
| 110 | 520 | 3200 | 88 | CNC(=O)c1ccc2cc(C3(O)c4cncn4CC3(C)C)ccc2c1 (racemic) |  |

— ChEMBL document CHEMBL1921734 (Bioorg Med Chem, 2011)
